Measurements taken from patent publication US12403142B2, “Combination therapy with a phosphoinositide 3-kinase inhibitor with a zinc binding moiety” (Curis, Inc., priority 2018, dated 2025).

How the values were obtained:
[1] = test system: HDACs (HeLa cell nuclear extracts); experiment: HDAC activity assay, Biomol Color de Lys system; assay type: biochemical; settings: 25° C. for 1 hour
Description: HDAC inhibitory activity was assessed using the Biomol Color de Lys system (AK-500, Biomol, Plymouth Meeting, PA). Briefly, HeLa cell nuclear extracts were used as a source of HDACs. Different concentrations of test compounds were serially diluted in dimethylsulfoxide (DMSO) and added to HeLa cell nuclear extracts in the presence of a colorimetric artificial substrate. Final assay condition contained 50 mM Tris/C1, pH 8.0, 137 mM NaCl, 2.7 mM KCl and 1 mM MgCl2. Reactions were carried in room temperature (25° C.) for 1 hour before addition of developer for termination. Relative enzyme activity was measured in the WALLAC Victor II 1420 microplate reader as fluorescence intensity (excitation: 350-380 nm; emission: 440-460 nm). Data were analyzed using GraphPad Prism (v4.0a) with a sigmoidal dose response curve fitting for IC50 calculation.

[2] = test system: CT26.WT mouse colon carcinoma cells; experiment: Compound 1 and anti-PD-1 in the mouse CT26.WT xenograft model; assay type: in vivo
Description: Animals: Female Balb/c Mice, 8 weeks old, fed a high fat diet
CT26.WT cells were collected from flasks and washed once in RPMI 1640 with no additives. […] Mice were grouped once tumors were palpable on day 7 or day 8 and randomized by body weight. Treatment started with antibody and Compound 1 was begun immediately.
Animals were monitored until the dosing commenced and then were measured twice a week during dosing until tumor volume reached protocol limit or ulceration was too severe. Tumor tissue and blood/plasma were collected at the end of the study.

A20 syngeneic cells = experiment: Compound 1 and anti-PD-1 in the A20 mouse xenograft model; assay type: in vivo
From the text: Animals: Female Balb/c Mice, 4-5 weeks old, fed a regular diet
A20 syngeneic cells were collected from flasks and washed once in RPMI 1640 with no additives. […] Animals were implanted with 2×10^5 cells in the right flank. Dosing commenced when tumors were greater than 100 mm^3 (around day 13) and dosing continued for 21 days or until the tumors reached the limit of 2000 mm^3.
Animals started dosing around day 13 when tumors are fully palpable and measured. Dosing continued until tumors begin to show ulceration that requires sacrifice. Tumors were collected before extensive necrosis to run ELISA and Flow analysis.

[3] = test system: a variety of cancer cell lines; experiment: Antiproliferative activity in vitro; assay type: cell-based
[4] = Oral bioavailability in animal models; assay type: in vivo
tumor tissue = experiment: Tumor uptake and pharmacodynamics in xenograft tumor bearing mice; assay type: in vivo, mouse; settings: oral or intravenous dosing
[5] = test system: mouse xenograft tumor models; experiment: Antitumor activity in mouse xenograft tumor models; assay type: in vivo; settings: oral or intravenous administration
[6] = Genotoxicity testing using the Ames test

## COc1ccc(-c2nc(N3CCOCC3)c3sc(CN(C)c4ncc(C(=O)NO)cn4)cc3n2)cn1 [Compound 1, N-Hydroxy-2-(((2-(6-methoxypyridin-3-yl)-4-morpholinothieno[3,2-d]pyrimidin-6-yl)methyl)(methyl)amino)pyrimidine-5-carboxamide]
[1]
  IC50: < 100 nM
[2]; CT26.WT model, Compound 1 50 mg/kg, anti-PD-1 100 ug/mouse
  inhibition of tumor growth: only small inhibition of tumor growth
[2]; CT26.WT, female Balb/c mice, Day 15, relative to Vehicle (Cmp 1) group, Cpd 1 50 mg/kg PO 5+2−, mAb 100 μg IP BIW
  TGI %* (Day 15): 3%
A20 syngeneic cells; A20, female Balb/c mice, Day 13, relative to Vehicle (Cmp 1) + isotype group, Cpd 1 100 mg/kg PO 5+2−, mAb 100 μg BIW
  TGI %* (Day 13): 60%
A20 syngeneic cells; A20 model, Compound 1 100 mg/kg, anti-PD-1 100 ug/mouse
  tumor growth inhibition: significant tumor growth inhibition
[3]
  antiproliferative activity: potent antiproliferative activity
[4]
  oral bioavailability: significant oral bioavailability
Tumor tissue
  pharmacodynamic activity in tumor tissue: pharmacodynamic activity in tumor tissue
  uptake by the tumor tissue: significant uptake by the tumor tissue
[5]
  antitumor activity: substantial antitumor activity
[6]
  safety profile (genotoxicity, Ames test): favorable safety profile
